Measured values taken from patent publication US10588317B2, “Isoxazoline-substituted benzamides and analogues as insecticides” (priority 2015, dated 2020).

Key:
Assay type in all cases: in vivo
Thrips tabaci = Thrips tabaci (onion thrips): feeding/contact activity; conditions: 144 h, application rate 200 ppm, Thrips population of mixed ages, 6 days after infestation, read-out: mortality
Procedure: (§1) Sunflower leaf discs were placed on agar in 24-well microtiter plates and sprayed with aqueous test solutions prepared from 10'000 ppm DMSO stock solutions. After drying the leaf discs were infested with a Thrips population of mixed ages. The samples were assessed for mortality 6 days after infestation.

Plutella xylostella = Plutella xylostella (diamond back moth), artificial diet; conditions: 120 h, application rate 200 ppm, L2 larvae, 5 days after infestation, read-out: effect in at least one of the two categories (mortality or growth inhibition)
Procedure, shortened: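 Artificial diet in 24-well plates treated with aqueous test solutions made from 10'000 ppm DMSO stocks, dried, then infested with L2 larvae (10 to 15 per well). Mortality and growth inhibition scored against untreated samples 5 days after infestation; activity cut-off at least 80% in either category at 200 ppm.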

Myzus persicae = Myzus persicae (green peach aphid): feeding/contact activity; conditions: 144 h, application rate 200 ppm, aphid population of mixed ages, 6 days after infestation, read-out: mortality
Procedure: Sunflower leaf discs were placed onto agar in a 24-well microtiter plate and sprayed with aqueous test solutions prepared from 10'000 ppm DMSO stock solutions. After drying, the leaf discs were infested with an aphid population of mixed ages. The samples were assessed for mortality 6 days after infestation.

Tetranychus urticae = Tetranychus urticae (two-spotted spider mite): feeding/contact activity; conditions: 192 h, application rate 200 ppm, mixed population (mobile stages), 8 days after infestation, read-out: mortality
Procedure: as §1, with “Bean” for “Sunflower”, “discs” for “discs were placed”, “were” for “and”, “mite” for “Thrips”, “on mixed population (mobile stages) 8” for “6”

Spodoptera littoralis [1] = assay: Spodoptera littoralis (Egyptian cotton leaf worm), uptake by lettuce roots from agar; conditions: 144 h, read-out: effect in at least one of the three categories (mortality, anti-feeding, or growth inhibition); for percent effect (mortality, anti-feeding or growth inhibition) at 12.5 ppm: test rate 12.5 ppm, eggs, 6 days after infestation
Excerpt: Test compounds were applied by pipette from 10'000 ppm DMSO stock solutions into 24-well plates and mixed with agar. Lettuce seeds were placed onto the agar and the multi well plate was closed by another plate which contained also agar. After 7 days the compound was absorbed by the roots and the lettuce grew into the lid plate. The lettuce leaves were then cut off into the lid plate. Spodoptera eggs were pipetted through a plastic stencil onto a humid gel blotting paper and the lid plate was closed with it. The samples were assessed for mortality, anti-feedant effect and growth inhibition in comparison to untreated samples 6 days after infestation.
The following compounds gave an effect of at least 80% in at least one of the three categories (mortality, anti-feeding, or growth inhibition) at a test rate of 12.5 ppm: […]

Spodoptera littoralis [2] = assay: Spodoptera littoralis (Egyptian cotton leaf worm), sprayed cotton leaf discs; conditions: foliar, 72 h, application rate 200 ppm, L1 larvae, 3 days after infestation, read-out: control (mortality, anti-feeding effect, growth inhibition)
Procedure, shortened: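 Cotton leaf discs on agar sprayed with aqueous test solutions made from 10'000 ppm DMSO stock; after drying, infested with five L1 larvae. Mortality, anti-feeding and growth inhibition scored versus untreated samples 3 days after infestation; control counted when any category exceeds untreated.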

Diabrotica balteata = Diabrotica balteata (corn root worm), sprayed maize sprouts; conditions: 96 h, application rate 200 ppm, L2 larvae, 4 days after infestation, read-out: effect in at least one of the two categories (mortality or growth inhibition)
Procedure, shortened: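 Maize sprouts on agar sprayed with aqueous dilutions of DMSO stocks, dried, then infested with L2 larvae (6–10 per well). Mortality and growth inhibition scored against untreated controls 4 days after infestation, at 200 ppm application rate.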

Euschistus heros = Euschistus heros (neotropical brown stink bug), sprayed soybean leaves; conditions: 120 h, application rate 200 ppm, N2 nymphs, 5 days after infestation, read-out: effect in at least one of the two categories (mortality or growth inhibition)
Procedure, shortened: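 Soybean leaves on agar sprayed with aqueous dilutions of DMSO stocks, dried, then infested with N2 nymphs. Mortality and growth inhibition scored against untreated samples 5 days after infestation; application rate 200 ppm.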

Cc1cc(C2=NO[C@@](c3cc(Cl)c(Cl)c(Cl)c3)(C(F)(F)F)C2)ccc1C(=O)NC1CON(S(=O)(=O)N(C)C)C1 (stereo partly drawn) [Compound A31, N-[2-(dimethylsulfamoyl)isoxazolidin-4-yl]-2-methyl-4-[(5S)-5-(3,4,5-trichlorophenyl)-5-(trifluoromethyl)-4H-isoxazol-3-yl]benzamide]
≥ 80%: mortality at 200 ppm (Thrips tabaci) | percent effect (mortality or growth inhibition) at 200 ppm (Plutella xylostella) | mortality at 200 ppm (Myzus persicae) | mortality at 200 ppm (Tetranychus urticae) | percent control (mortality, anti-feedant effect or growth inhibition) at 12.5 ppm (Spodoptera littoralis [1]) | mortality at 200 ppm (Spodoptera littoralis [2]) | percent effect (mortality or growth inhibition) at 200 ppm (Diabrotica balteata)

CN(C)S(=O)(=O)N1CC(NC(=O)c2ccc(C3=NO[C@@](c4cc(Cl)c(Cl)c(Cl)c4)(C(F)(F)F)C3)cc2Cl)CO1 (stereo partly drawn) [Compound A32, 2-chloro-N-[2-(dimethylsulfamoyl)isoxazolidin-4-yl]-4-[(5S)-5-(3,4,5-trichlorophenyl)-5-(trifluoromethyl)-4H-isoxazol-3-yl]benzamide]
≥ 80%: mortality at 200 ppm (Thrips tabaci) | percent effect (mortality or growth inhibition) at 200 ppm (Plutella xylostella) | mortality at 200 ppm (Myzus persicae) | mortality at 200 ppm (Tetranychus urticae) | percent control (mortality, anti-feedant effect or growth inhibition) at 12.5 ppm (Spodoptera littoralis [1]) | mortality at 200 ppm (Spodoptera littoralis [2]) | percent effect (mortality or growth inhibition) at 200 ppm (Diabrotica balteata)

Cc1cc(C2=NO[C@@](c3cc(Cl)c(F)c(Cl)c3)(C(F)(F)F)C2)ccc1C(=O)NC1CON(S(=O)(=O)CC(F)(F)F)C1 (some centres unmarked) [Compound A8]
≥ 80%: mortality at 200 ppm (Thrips tabaci) | percent effect (mortality or growth inhibition) at 200 ppm (Plutella xylostella) | percent effect (mortality or growth inhibition) at 200 ppm (Euschistus heros) | mortality at 200 ppm (Tetranychus urticae) | percent control (mortality, anti-feedant effect or growth inhibition) at 12.5 ppm (Spodoptera littoralis [1]) | mortality at 200 ppm (Spodoptera littoralis [2]) | percent effect (mortality or growth inhibition) at 200 ppm (Diabrotica balteata)

Cc1cc(C2=NO[C@@](c3cc(Br)cc(C(F)(F)F)c3)(C(F)(F)F)C2)ccc1C(=O)NC1CON(S(=O)(=O)N(C)C)C1 (some centres unmarked) [Compound A23]
≥ 80%: mortality at 200 ppm (Thrips tabaci) | percent effect (mortality or growth inhibition) at 200 ppm (Plutella xylostella) | mortality at 200 ppm (Myzus persicae) | mortality at 200 ppm (Tetranychus urticae) | percent effect (mortality, anti-feeding or growth inhibition) at 12.5 ppm (Spodoptera littoralis [1]) | mortality at 200 ppm (Spodoptera littoralis [2]) | percent effect (mortality or growth inhibition) at 200 ppm (Diabrotica balteata)

CCS(=O)(=O)N1CC(NC(=O)c2ccc(C3=NO[C@@](c4cc(Cl)c(F)c(Cl)c4)(C(F)(F)F)C3)cc2Cl)CO1 (stereo partly drawn) [Compound A25, 2-chloro-4-[(5S)-5-(3,5-dichloro-4-fluoro-phenyl)-5-(trifluoromethyl)-4H-isoxazol-3-yl]-N-(2-ethylsulfonylisoxazolidin-4-yl)benzamide]
≥ 80%: mortality at 200 ppm (Thrips tabaci) | percent effect (mortality or growth inhibition) at 200 ppm (Plutella xylostella) | mortality at 200 ppm (Myzus persicae) | mortality at 200 ppm (Tetranychus urticae) | percent control (mortality, anti-feedant effect or growth inhibition) at 12.5 ppm (Spodoptera littoralis [1]) | mortality at 200 ppm (Spodoptera littoralis [2]) | percent effect (mortality or growth inhibition) at 200 ppm (Diabrotica balteata)

CCS(=O)(=O)N1CC(NC(=O)c2ccc(C3=NO[C@@](c4cc(Cl)c(Cl)c(Cl)c4)(C(F)(F)F)C3)cc2Cl)CO1 (stereo partly drawn) [Compound A28, 2-chloro-N-(2-ethylsulfonylisoxazolidin-4-yl)-4-[(5S)-5-(3,4,5-trichlorophenyl)-5-(trifluoromethyl)-4H-isoxazol-3-yl]benzamide]
≥ 80%: mortality at 200 ppm (Thrips tabaci) | percent effect (mortality or growth inhibition) at 200 ppm (Plutella xylostella) | mortality at 200 ppm (Myzus persicae) | mortality at 200 ppm (Tetranychus urticae) | percent control (mortality, anti-feedant effect or growth inhibition) at 12.5 ppm (Spodoptera littoralis [1]) | mortality at 200 ppm (Spodoptera littoralis [2]) | percent effect (mortality or growth inhibition) at 200 ppm (Diabrotica balteata)

Cc1cc(C2=NOC(c3cc(C(F)(F)F)c(Cl)c(C(F)(F)F)c3)(C(F)(F)F)C2)ccc1C(=O)NC1CON(S(C)(=O)=O)C1 (centres unmarked) [Compound A57]
≥ 80%: mortality at 200 ppm (Thrips tabaci) | percent effect (mortality or growth inhibition) at 200 ppm (Plutella xylostella) | percent effect (mortality or growth inhibition) at 200 ppm (Euschistus heros) | mortality at 200 ppm (Tetranychus urticae) | percent control (mortality, anti-feedant effect or growth inhibition) at 12.5 ppm (Spodoptera littoralis [1]) | mortality at 200 ppm (Spodoptera littoralis [2]) | percent effect (mortality or growth inhibition) at 200 ppm (Diabrotica balteata)

CCS(=O)(=O)N1C[C@@H](NC(=O)c2ccc(C3=NO[C@@](c4cccc(C(F)(F)F)c4)(C(F)(F)F)C3)cc2C)CO1 [Compound A160]
≥ 80%: mortality at 200 ppm (Thrips tabaci) | percent effect (mortality or growth inhibition) at 200 ppm (Plutella xylostella) | percent effect (mortality or growth inhibition) at 200 ppm (Euschistus heros) | mortality at 200 ppm (Tetranychus urticae) | percent effect (mortality, anti-feeding or growth inhibition) at 12.5 ppm (Spodoptera littoralis [1]) | mortality at 200 ppm (Spodoptera littoralis [2]) | percent effect (mortality or growth inhibition) at 200 ppm (Diabrotica balteata)

Cc1cc(C2=NOC(c3cc(Cl)cc(Cl)c3)(C(F)(F)F)C2)ncc1C(=O)NC1CON(S(C)(=O)=O)C1 (centres unmarked) [Compound A236]
≥ 80%: mortality at 200 ppm (Thrips tabaci) | percent effect (mortality or growth inhibition) at 200 ppm (Plutella xylostella) | percent effect (mortality or growth inhibition) at 200 ppm (Euschistus heros) | mortality at 200 ppm (Tetranychus urticae) | percent control (mortality, anti-feedant effect or growth inhibition) at 12.5 ppm (Spodoptera littoralis [1]) | mortality at 200 ppm (Spodoptera littoralis [2]) | percent effect (mortality or growth inhibition) at 200 ppm (Diabrotica balteata)

CS(=O)(=O)N1CC(NC(=O)c2ccc(C3=NOC(c4cc(Cl)cc(Cl)c4)(C(F)(F)F)C3)cc2Br)CO1 (centres unmarked) [Compound A48]
≥ 80%: mortality at 200 ppm (Thrips tabaci) | percent effect (mortality or growth inhibition) at 200 ppm (Plutella xylostella) | percent effect (mortality or growth inhibition) at 200 ppm (Euschistus heros) | mortality at 200 ppm (Tetranychus urticae) | percent control (mortality, anti-feedant effect or growth inhibition) at 12.5 ppm (Spodoptera littoralis [1]) | mortality at 200 ppm (Spodoptera littoralis [2]) | percent effect (mortality or growth inhibition) at 200 ppm (Diabrotica balteata)

CS(=O)(=O)N1CC(NC(=O)c2ccc(C3=NOC(c4cc(Cl)cc(Cl)c4)(C(F)(F)F)C3)cc2C2CC2)CO1 (centres unmarked) [Compound A52]
≥ 80%: mortality at 200 ppm (Thrips tabaci) | percent effect (mortality or growth inhibition) at 200 ppm (Plutella xylostella) | percent effect (mortality or growth inhibition) at 200 ppm (Euschistus heros) | mortality at 200 ppm (Tetranychus urticae) | percent control (mortality, anti-feedant effect or growth inhibition) at 12.5 ppm (Spodoptera littoralis [1]) | mortality at 200 ppm (Spodoptera littoralis [2]) | percent effect (mortality or growth inhibition) at 200 ppm (Diabrotica balteata)

CNS(=O)(=O)N1C[C@@H](NC(=O)c2ccc(C3=NO[C@](c4cc(F)cc(C(F)(F)F)c4)(C(F)(F)F)C3)cc2C)CO1 [Compound A180]
≥ 80%: mortality at 200 ppm (Thrips tabaci) | percent effect (mortality or growth inhibition) at 200 ppm (Plutella xylostella) | percent effect (mortality or growth inhibition) at 200 ppm (Euschistus heros) | mortality at 200 ppm (Myzus persicae) | mortality at 200 ppm (Tetranychus urticae) | mortality at 200 ppm (Spodoptera littoralis [2]) | percent effect (mortality or growth inhibition) at 200 ppm (Diabrotica balteata)

CC(C)(C)OC(=O)NS(=O)(=O)N1C[C@@H](NC(=O)c2ccc(C3=NO[C@@](c4cc(Cl)cc(Cl)c4)(C(F)(F)F)C3)cc2Cl)CO1 [Compound A151, tert-butyl N-[(4R)-4-[[2-chloro-4-[(5S)-5-(3,5-dichlorophenyl)-5-(trifluoromethyl)-4H-isoxazol-3-yl]benzoyl]amino]isoxazolidin-2-yl]sulfonylcarbamate]
≥ 80%: mortality at 200 ppm (Thrips tabaci) | percent effect (mortality or growth inhibition) at 200 ppm (Plutella xylostella) | percent effect (mortality or growth inhibition) at 200 ppm (Euschistus heros) | mortality at 200 ppm (Myzus persicae) | mortality at 200 ppm (Tetranychus urticae) | mortality at 200 ppm (Spodoptera littoralis [2]) | percent effect (mortality or growth inhibition) at 200 ppm (Diabrotica balteata)

CCS(=O)(=O)N1CC(NC(=O)c2ccc(C3=NO[C@@](c4cc(Cl)c(Cl)c(Cl)c4)(C(F)(F)F)C3)cc2Br)CO1 (stereo partly drawn) [Compound A43, 2-bromo-N-(2-ethylsulfonylisoxazolidin-4-yl)-4-[(5S)-5-(3,4,5-trichlorophenyl)-5-(trifluoromethyl)-4H-isoxazol-3-yl]benzamide]
≥ 80%: mortality at 200 ppm (Thrips tabaci) | percent effect (mortality or growth inhibition) at 200 ppm (Plutella xylostella) | percent effect (mortality or growth inhibition) at 200 ppm (Euschistus heros) | mortality at 200 ppm (Myzus persicae) | mortality at 200 ppm (Tetranychus urticae) | mortality at 200 ppm (Spodoptera littoralis [2]) | percent effect (mortality or growth inhibition) at 200 ppm (Diabrotica balteata)
